# Data as given in a melting point compilation (Tetko et al.; mined from patent text by program, amines drawn as free bases though some values may be those of a salt).
row,SMILES,melting point [°C]
1,COc1nc(C(F)(F)C(F)(F)F)c(F)c(=O)n1-c1cc(OC(C)C)c(Cl)cc1F,69 to 71
2,O=[N+]([O-])c1ccc(Nc2ccc(C(F)(F)C(F)(F)C(F)(F)C(F)(F)C(F)(F)C(F)(F)F)cc2)c([N+](=O)[O-])c1,145 to 146
3,OCc1cnc2c(Cl)cccc2c1O,> 300
4,COCCc1nc(Cl)c(CO)[nH]1,91 to 95
5,CC(=O)NC(=O)CSC(c1ccccc1)(c1ccccc1)c1ccccc1,147 to 149
6,Cc1cc(C(=O)NCCCCc2ccc(-c3ccc(=O)[nH]n3)cc2)on1,236 to 238
7,CC1Cc2ccc(Br)cc2C(c2ccc(N)cc2)=NN1C(=O)C(F)(F)F (configuration not stated),93 to 96
8,CC(=O)NC(C)(C)Cc1ccc2c(c1)CCC2,130 to 131
9,Cc1cc(C)cc(Sc2cccc(N)c2C#N)c1,124 to 125
10,CSc1nccc(-c2cc(C)ccc2N)n1,120 to 123
11,CN1CCN(c2cc(F)cc3c(=O)cc(C(=O)Nc4ccc(N5CCN(C(=O)O)CC5)cc4)oc23)CC1,236 to 238
12,COc1ccc(C)cc1NC(=O)Nc1ccc2c(c1)C=CN(C(=O)Nc1c(C)cccc1Cl)C2,216 to 218
13,CNC(=O)c1ccccc1CCc1ccc(Br)cc1,138 to 141
14,C=CC(=O)NC1CC(C)(C)N(C=CC(=O)OCC)C(C)(C)C1,123 to 125
15,CCCCCN1CC[C@@H](c2ccc(Br)cc2)[C@H](CO)C1 (racemic),128 to 130
16,CC(=O)N1CCn2c(CN3CCOCC3)ccc2C1,117 to 118
17,CC(C)(C)CCNc1cccc(-c2ccnc3c(C(=O)c4cccs4)cnn23)c1,156 to 158
18,CN(C(=O)COc1nnc(Cl)s1)c1ccccc1,101
19,CCOC(=O)c1cnc2c(c1O)CCCCCCCCCC2,182 to 190
20,CC(C)(C)NC(=O)c1nn(-c2ccc(Br)cc2)c2c1C1CCC2CC1,191 to 193
21,CC(C)(C)N(NC(=O)c1ccccc1)C(=O)c1ccco1,155 to 175
22,COCC(=O)Nc1cc(C(=O)OC)c(O)c2ncc(Cc3ccc(F)cc3)cc12,154 to 155
23,CN(C)C(=O)c1nc(-c2ccccc2)nc2c1c1ccc(Cl)cc1n2C,211 to 213
24,COc1ccc2nccc(C(O)CCC3CCNCC3)c2c1 (configuration not stated),154
25,CC(=O)C1=C(C)c2ccccc2C1(C)C,104 to 105
26,Cc1noc(Cc2ccccc2Nc2c(Cl)cccc2Cl)n1,93.5 to 94.5

row,SMILES,melting point [°C]
1,CCOc1nsc(N)c1C#N,216 to 217
2,Nc1cc(Cl)cc(Cl)c1C(=O)NCc1cccc(F)c1,79 to 81
3,COc1cc2ncc(C#N)c(Nc3ccc(F)cc3)c2cc1OC,282 to 285
4,CC(=O)N1CCc2ccc(C(=O)c3ccccc3)cc2C1,110 to 113
5,COc1cc(CC(C)=O)c([N+](=O)[O-])cc1Cl,114 to 115
6,ClC[Si](c1ccccc1)(c1ccccc1)c1ccccc1,112 to 115
7,Nc1nc2ccc(S(=O)(=O)n3c(CCCC(=O)O)cc4cc(Cl)ccc43)cc2o1,220
8,C#Cc1cc(Cl)cc(Cl)c1,80 to 81.5
9,CCOc1ccc2c(c1)n(C1CCCCC1)c(=O)n2S(=O)(=O)c1ccc(N)cc1OC,228
10,COc1cc2c(N)nc(Cl)nc2c(OC)c1OC,244 to 245
11,CCc1nnc2c(N(CC)CC)nc3cc(Cl)c(Cl)cc3n12,147 to 149
12,COc1cc(-c2ccc3ncc(NC(=O)Nc4ccccc4)nc3n2)ccc1O,240
13,O=C1NC(=O)C(CCc2ccc(O)cc2)S1 (configuration not stated),175 to 176
14,CSc1nc(-c2ccncc2)nc(=O)n1C,216 to 218
15,O=CN1C2CCC1CC(Oc1ccc(Cl)cn1)C2 (configuration not stated),112 to 114
16,CC(C)c1cc(C(=O)Nc2ccc(C(=O)O)cc2)[nH]c1C(C)C,230
17,O=c1c2ccccc2[nH]n1Cc1cccc2ccccc12,198 to 200
18,Cc1cc(NC2=NCCN2CCNC(=O)Nc2ccc(C(=O)O)cc2)nc(C)n1,160
19,COc1ccc2cc(C(C)C(=O)OCC(=O)OCCO[N+](=O)[O-])ccc2c1 (configuration not stated),44 to 45
20,CCN1C(c2nnc(-c3ccccc3)o2)=C(OC(=O)C2CCCC2)c2ccccc2S1(=O)=O,194 to 196
21,NC1COC2=CC3=C(OCCC3)C(=O)C21 (configuration not stated),> 260
22,C[C@@H](O)c1nccc(N2CCN(c3nc4cccnc4o3)CC2)n1,153 to 156
23,CC(C)(C)c1ccc(NC(=O)NCc2ccc(-n3c(-c4cccnc4N)nc4cccnc43)cc2)cc1,210 to 212
24,Cc1cc(-c2ccc(Cl)cc2)n2ncc(C#N)c2n1,285 to 287
25,COC(=O)c1c2c(c3cc(OC)c(OC)c(OC)c3c1-c1cc(OC)c(OC)c(OC)c1)OCOC2=O,165 to 167
26,C=C(C)COCC(C)C1CC=C2C3=C(CCC21C)C1(C)CCC(O)C(C)(C)C1CC3 (configuration not stated),113 to 115

row,SMILES,melting point [°C]
1,COc1ccc([N+](=O)[O-])c(CBr)c1,64 to 65
2,COc1ccc(CN2Cc3cc(OC)c(O)cc3C(OC)C2)cc1 (configuration not stated),84 to 85
3,Clc1ccc2c(c1)C(c1ccccc1)=Nc1cccnc1N2,156 to 158
4,C=CCc1cc(Br)ccc1OCC(=O)OCC,70.5
5,O=C1NCCN1C1CCN(CCC2COc3cc(Cl)c(Cl)cc3O2)CC1 (configuration not stated),85 to 90
6,O=C(CCCCN1CCOCC1)NNC(=O)N1Cc2ccccc2Oc2ccc(Cl)cc21,107 to 114
7,Clc1ccc(OCc2ccc3ccccc3n2)cc1Cl,80.5 to 82
8,CC(C)(C)c1cc(CCc2nnc(N)o2)cc(C(C)(C)C)c1O,220 to 221
9,Cn1nnnc1SCC1=C(C(=O)OCOC(=O)C(C)(C)C)N2C(=O)C(NC(=O)Cc3csc(=O)s3)C2SC1 (configuration not stated),100
10,COc1cn(-c2ccccc2F)nc(-c2ccnn2-c2ccccc2)c1=O,163 to 165
11,COC(=O)c1nnc(Cl)cc1NCc1ccc(OC)c(Cl)c1,162 to 163
12,O=C1c2ccccc2-c2c1c1ccccc1c(=O)n2CCCCCCCCCCCCn1c2c(c3ccccc3c1=O)C(=O)c1ccccc1-2,226 to 228
13,COC(=O)Cn1c(C(=O)Nc2nc(-c3cc(OC)c(Cl)cc3OC)c(CCC3CCCCC3)s2)cc2cc(C)cc(C)c21,193 to 195
14,COc1cc(COc2cccc(CC(=O)O)c2-c2cccc(C(=O)O)c2)ccc1C12CC3CC(CC(C3)C1)C2,240 to 242
15,CCCCCN1CCN(c2cccc3c2C[C@H](NC(C)=O)CC3)CC1,119 to 120
16,COc1cc(OC)nc(Cc2ccccc2NC(=O)OC(C)(C)C)n1,98 to 100
17,CC(=O)c1c(C)oc(-c2ccncc2)c1C,65 to 66.5
18,O=C(Nc1cccc(Br)c1)c1ccccc1SSc1ccccc1C(=O)Nc1cccc(Br)c1,194 to 196
19,N[C@@H]1CN2C(=O)N(c3cc(Cl)nc(Cl)c3)C(=O)[C@@]2(Cc2ccc(OC(F)(F)F)cc2)C1,151
20,Cc1csc2ncc(C=O)n12,163 to 165
21,CC(C)=CCn1nc(C(=O)c2cccc(O)c2)c2ccccc21,92 to 94
22,CC(CI)CCCC(C)C1CC=C2C3=C(CCC21C)C1(C)CCC(O)C(C)(C)C1CC3 (configuration not stated),148
23,CN1CCC(=C2c3ccccc3COc3ccc(C(=O)O)cc32)CC1,205 to 210
24,CCCCC1=CC(O)(C(Br)Br)N(c2ccccc2)C1=O (configuration not stated),96 to 98
25,CN1C(=O)CN=C(c2ccccc2F)c2cc(NC(=O)N3CC3)ccc21,186 to 190
26,CCCCc1oc2ccccc2c1Cc1ccc(O)cc1,67 to 70

row,SMILES,melting point [°C]
1,CC(C)c1cn2ccccc2c1S(=O)(=O)c1ccc(O)cc1,179 to 180
2,CCOc1c(OC)cccc1C(=O)Nc1ccc(C(=O)OC)cc1C(=O)OC,113 to 115
3,CC(C)=CCCC(C)=CCCC(C)=CC=CC(C)=CC(=O)N(C)C,39 to 39.5
4,O=c1ccccn1C(c1ccccc1)c1ccccc1,142 to 145
5,CC(C)NCC(=O)Nc1ccc2c(c1)C(=O)c1cc(NC(=O)CNC(C)C)ccc1C2=O,158
6,CC(=O)Nc1cccc(-n2c(=O)c(CCCc3ccncc3)cc3cccnc32)c1,200 to 202
7,CCOC(=O)/C=C/C=Cc1ccc(OCCc2nc(-c3ccccc3)oc2C)cc1,102 to 103
8,CC(C)(C)OCC1CN(c2ccc3ccccc3c2)C(=O)O1 (configuration not stated),112 to 113
9,CCCc1cccc2c(C=O)cc(OC)c(O)c12,128 to 129
10,Cc1c(SCCCSCCc2ccccc2)ccnc1CSc1ccncc1,48 to 50
11,Cn1c(COc2ccc(CC3SC(=O)N(C(c4ccccc4)(c4ccccc4)c4ccccc4)C3=O)cc2)nc2ccc(Cl)nc21 (configuration not stated),97 to 99
12,CN(C)c1ccccc1C(=O)N1CCC(=O)c2ccc(Cl)cc21,85.5 to 89
13,CC(O)(c1ccncc1)c1cnc(-c2ccc(F)cc2)s1 (configuration not stated),229 to 232
14,O=C(/C=C/c1ccc(CN2CCCC2)cc1)Nc1ccc(Br)cc1,184 to 186
15,COc1ccccc1C1(O)C(O)CC(c2ccccc2)(c2ccccc2)C2CN(Cc3ccccc3)CC21 (configuration not stated),236
16,O=c1[nH]c2c([nH]c1=O)C(O)c1ccccc1-2 (configuration not stated),> 300
17,CC(C)N1Cc2cc(S(C)(=O)=O)ccc2N(CCN2CC=C(c3c[nH]c4cc(F)ccc34)CC2)S1(=O)=O,118 to 120
18,Cc1cc(NC(=O)Nc2c(C)cccc2C)no1,200
19,CN1CCN(c2cc3c(cc2F)c(=O)c(C(=O)O)cn3C2COC2)CC1,178 to 180
20,COc1ccc2c3c1CCCN3C(C)(C)C=C2C,87 to 88
21,Cc1nc(C#CCCn2nc3ccccc3n2)sc1C,96 to 98
22,Cc1cn(C[C@H]2CN(c3ccc(-c4ccc(C#N)nc4)c(F)c3)C(=O)O2)nn1,210 to 212
23,CCC(CC)C(c1ccnn1-c1ccccc1)N(C)S(=O)(=O)c1ccc(Cl)c(Cl)c1 (configuration not stated),102 to 104
24,CCS(=O)(=O)c1cc2c(c(C(=O)NCC3CCCN3C)c1)OCCO2 (configuration not stated),140 to 141
